The values below come from patent US20230271933A1, “HETEROCYCLIC IMMUNOMODULATOR” (Beijing Innocare Pharma Tech Co., Ltd., priority 2020, published 2023).

By EC50 is commonly meant the concentration giving half of the maximal effect. A lower EC50 goes with a more potent agent. Usually IC50 stands for the point on the concentration scale where inhibition reaches its midpoint. In general, clearance refers to the rate of elimination divided by the concentration. A high value points to a high capacity for elimination. One may read the AUC(0-t) as the area under the concentration-time curve up to a stated or last time point. Higher therefore signals high exposure. The term Cmax denotes the maximum level reached in the sampled fluid or tissue.

One data set deals with IL-2. The data set can be described thus: Stimulation of IL-2 secretion in anti-CD3-stimulated hPBMC (ELISA). It counts as cell-based, human. As to conditions: anti-CD3 antibody, 72 hours. Here is the method: (§1) The immunomodulatory function of the compound of the present invention was evaluated by detecting its effect on the secretion amount of TNFα and IL-2 in cells from the human peripheral blood mononuclear cells (hPBMC) by the enzyme linked immunosorbent assay (ELISA) method.
(§2) The peripheral blood of healthy volunteers was collected by using EDTA anticoagulant tubes, and diluted with phosphate buffered saline (PBS) containing 2% fetal bovine serum (Gibco, Cat. No. 10099-141) in an equal volume ratio. 30 mL of the resulting diluted sample was transferred into a Sepmate-50 centrifuge tube (Stemcell, Cat. No. 86450) to which 15 mL of a density-gradient centrifugation liquid (Sigma, Cat. No. 10771) had been added in advance, and centrifuged at room temperature at 1200×g for 10 minutes. The liquid containing PBMC in the upper layer was transferred to a new 50-mL centrifuge tube, and centrifuged at room temperature at 300×g for 8 minutes. The supernatant was discarded, and the resulting PBMC was resuspended to 5×10^6/mL by using RPMI 1640 medium (Gibco, Cat. No. 72400-047). 80 μL of the resulting suspension was added to each well in a 96-well plate.
(§3) Each concentration was further diluted 50-fold with RPMI 1640 medium. 10 μL of each compound solution was added into the cells in the above 96-well plate. The 96-well plate was placed in an incubator, and the cells were cultured at 37° C. and 5% CO2 for 1 hour. 10 μL of LPS (Sigma, Cat. No. L-2880) with a concentration of 100 ng/mL was added, and the cells were continuously cultured in the incubator at 37° C. and 5% CO2 overnight. Supernatants were collected for the detection of TNFα.
The above-mentioned 96-well plate can also be placed in an incubator, and the cells were cultured at 37° C. and 5% CO2 for 1 hour. 10 μL of anti-CD3 antibody (Thermo Fisher, Cat. No. 14-0037-82) with a concentration of 500 ng/mL was added, and the cells were continuously cultured in the incubator at 37° C. and 5% CO2 for 72 hours. Supernatants were collected for the detection of IL-2.
(§4) TNFα and IL-2 were detected respectively according to each instruction of the ELISA kits (R&D, Cat. No. DY210 and DY202, respectively) to obtain the OD450 values for each well. The group containing 0.2% DMSO medium was used as 0% inhibition or stimulation. The XLfit software was used to plot the compound inhibition or stimulation curve and calculate the corresponding IC50 or EC50.

In data set [1] the test system is NCI-H929 human myeloma cells. The data set can be described thus: Inhibition of the proliferation of NCI-H929 cells (luminescent cell viability, CTG). The note with it: 6 days, CellTiter-Glo. It counts as cell-based. Here is the method:
The effect of the compounds of the present invention on the proliferation of NCI-H929 human myeloma cells was evaluated by using a luminescent cell viability test experiment.
The compound was dissolved and diluted to 5 mM in DMSO, and then serially diluted 4-fold in DMSO to a minimum concentration of 0.31 μM. Each concentration was further diluted 50-fold with RPMI 1640 medium (Thermo Fisher, Cat. No. 72400-047). If the IC50 value of the compound was relatively low, the initial concentration of the compound could be lowered.
NCI-H929 cells (Nanjing Cobioer, Cat. No. CBP60243) were cultured in RPMI 1640 complete medium [containing 10% FBS (GIBCO, Cat. No. 10099-141) and 100 units/mL penicillin-streptomycin (Thermo Fisher, Cat. No. 15140122)]. Cells (15000 cells/mL) were plated in 90 μL of the complete medium in a 96-well plate and cultured overnight, and then 10 μL of the compound solution was added into each well. The cells were cultured in an incubator at 37° C. and 5% CO2 for 6 days. Then the cell culture plate was taken out and balanced to room temperature according to the instruction of the CellTilter-Glo (CTG) kit (Promega, Cat. No. G7572). 50 μL CTG reagent was added for complete lysis, the plate was placed at room temperature for 10 minutes, and the luminescence signal was read with a microplate reader (EnVision, Perkin Elmer). The group containing 0.2% DMSO medium was used as 0% inhibition. The XLfit software was used to plot the compound inhibition curve and calculate the inhibitory IC50 value.
Background: In ATP-based viability assays light output follows the ATP content of the culture.

The test system of a further data set is TNFα. Kind of data set: Inhibition of TNFα secretion in LPS-stimulated hPBMC (ELISA). It counts as cell-based. The note with it: Homo sapiens, overnight, read-out: IC50 (nM) for the inhibition of the TNFa secretion. Here is the method: as §1, §2, §3, §4
The nature of data set [2]: In vivo pharmacokinetic experiment in rats. As to conditions: male Sprague-Dawley rats, n = 3; for F: PO 5 mpk vs IV 1 mpk; for clearance / Vd / AUC(0-t) / Cmax: rat, plasma; for clearance / Vd: 1 mg/kg, IV 1 mpk; for Vd: read-out: VSS; for AUC(0-t) / Cmax: 5 mg/kg, PO 5 mpk. Here is the method: The compound to be tested was dissolved in 5% DMA+20% Solutol+75% Saline vehicle to prepare a 0.5 mg/mL administration solution.
2 mL/kg of the administration solution was administered through the intravenous injection (IV) at a dose of 1 mg/kg to three fed male Sprague-Dawley rats, respectively. Blood samples were collected at 0.083, 0.25, 0.5, 1, 2, 4, 8 and 24 hours after administration. 10 mL/kg of the administration solution was administered by gavage (PO) at a dose of 5 mg/kg to other three fed male Sprague-Dawley rats, respectively. Blood samples were collected at 0.25, 0.5, 1, 2, 4, 8 and 24 hours after administration.
The concentration of the compound to be tested in plasma was obtained with the LC-MS/MS quantitative analysis with an API-4500 mass spectrometer, and the limit of quantitation (LOQ) for the plasma was 1 ng/mL.

As to `CC(c1ccc(COc2cccc3c2CN([C@H]2CCC(=O)NC2=O)C3=O)cc1)N1CC2CC1CO2` (single isomer, unassigned) [Compound 18], the concentration for a half-maximal effect (EC50) in the data set with IL-2 (Homo sapiens) was found to be 11 nM. The IC50 in data set [1] (Homo sapiens, NCI-H929, 144 h) was determined as 3.1 nM.

Consider `CC(c1ccc(COc2cccc3c2CN([C@H]2CCC(=O)NC2=O)C3=O)cc1)N1CC2CC1CO2` (single isomer, unassigned) [Compound 19], for which the IC50 in the data set with TNFα was 0.8 nM; in data set [1], 3.8 nM. The molecule also registered an EC50 in the data set with IL-2 of 11 nM.

In data set [1] (Homo sapiens, NCI-H929, 144 h), `CC(c1ccc(COc2cccc3c2CN(C2CCC(=O)NC2=O)C3=O)cc1)N1CCOCC1` (stereo not shown) [Compound 1, 3-(4-((4-(1-morpholinoethyl)benzyl)oxy)-1-oxoisoindolin-2-yl)piperidine-2,6-dione] displayed a half-maximal inhibitory concentration (IC50) of 7.7 nM.

Regarding `O=C1CCC(N2Cc3c(OCc4ccc(C5(N6CCOCC6)CC5)cc4)cccc3C2=O)C(=O)N1` (stereo not shown) [Compound 2, 3-(4-((4-(1-morpholinocyclopropyl)benzyl)oxy)-1-oxoisoindolin-2-yl)piperidine-2,6-dione], the IC50 stood at 7.8 nM in the data set with TNFα and 35 nM in data set [1] (Homo sapiens, NCI-H929, 144 h). Besides, a half-maximal effect in the data set on IL-2 (Homo sapiens) (EC50) was put at 10 nM.

As for `C[C@H](c1ccc(COc2cccc3c2CN(C2CCC(=O)NC2=O)C3=O)cc1)N1CCOCC1` (stereo partly drawn) [Compound 3, 3-(4-((4-((R)-1-morpholinoethyl)benzyl)oxy)-1-oxoisoindolin-2-yl)piperidine-2,6-dione], the half-maximal inhibitory concentration (IC50) in the data set on TNFα worked out at 1.1 nM. Moreover, in data set [2], the F was 20%, the clearance is 3.66 L/h/kg, the Vd worked out at 4.2 L/kg and the AUC(0-t) came out at 0.27 µg·h/mL. This molecule also registered a peak concentration (Cmax) in data set [2] of 0.105 µg/mL. The molecule also showed an EC50 in the data set on IL-2 (Homo sapiens) of 8 nM. This molecule returned an IC50 in data set [1] (Homo sapiens, NCI-H929, 144 h) of 7 nM.

As for `C[C@@H](c1ccc(COc2cccc3c2CN(C2CCC(=O)NC2=O)C3=O)cc1)N1CCOCC1` (stereo partly drawn) [Compound 4, 3-(4-((4-((S)-1-morpholinoethyl)-benzyl)oxy)-1-oxoisoindolin-2-yl)piperidine-2,6-dione], the IC50 with TNFα was found to be 0.9 nM; in data set [1] (Homo sapiens, NCI-H929, 144 h) it was 5 nM. The same molecule had an EC50 in the data set with IL-2 (Homo sapiens) of 4.1 nM.

`CC(C)(c1ccc(COc2cccc3c2CN([C@H]2CCC(=O)NC2=O)C3=O)cc1)N1CCOCC1` [Compound 5, (S)-3-(4-((4-(2-morpholinopropan-2-yl)benzyl)oxy)-1-oxoisoindolin-2-yl)piperidine-2,6-dione]: in data set [2], the F came out at 4%, the clearance turned out to be 6.6 L/h/kg, the Vd was determined as 3.3 L/kg and the area under the curve AUC(0-t) was determined as 0.0088 µg·h/mL. For the same molecule, in data set [2], the highest level (Cmax) was 0.0016 µg/mL. The IC50 in data set [1] (Homo sapiens, NCI-H929, 144 h) was 7.8 nM.

In the data set on IL-2 (Homo sapiens), `CC(C)(c1ccc(COc2cccc3c2CN([C@H]2CCC(=O)NC2=O)C3=O)cc1)N1CCN(c2ccc(C#N)cc2F)CC1` [Compound 8, (S)-4-(4-(2-(4-(((2-(2,6-dioxopiperidin-3-yl)-1-oxoisoindolin-4-yl)oxy)methyl)phenyl)-prop-2-yl)piperazin-1-yl)-3-fluorobenzonitrile] had an EC50 of 4 nM. Moreover, the IC50 in data set [1] (Homo sapiens, NCI-H929, 144 h) is 0.5 nM.

Molecule `N#Cc1ccc(N2CCN(C3(c4ccc(COc5cccc6c5CN([C@H]5CCC(=O)NC5=O)C6=O)cc4)CC3)CC2)c(F)c1` [Compound 9, (S)-4-(4-(1-(4-(((2-(2,6-dioxopiperidin-3-yl)-1-oxoisoindolin-4-yl)oxy)methyl)phenyl)-cyclopropyl)piperazin-1-yl)-3-fluorobenzonitrile] showed a 50% inhibitory concentration (IC50) in data set [1] (Homo sapiens, NCI-H929, 144 h) of 1.1 nM.

`N#CC(c1ccc(COc2cccc3c2CN([C@H]2CCC(=O)NC2=O)C3=O)cc1)N1CCOCC1` (stereo partly drawn) [Compound 10, 2-(4-(((2-((S)-2,6-dioxopiperidin-3-yl)-1-oxoisoindolin-4-yl)oxy)methyl)phenyl)-2-morpholinoacetonitrile]: the IC50 was determined as 2.1 nM in the data set on TNFα and 11 nM in data set [1] (Homo sapiens, NCI-H929, 144 h). Moreover, in the data set with IL-2 (Homo sapiens), the EC50 was determined as 46 nM.

Molecule `C[C@H](c1ccc(COc2cccc3c2CN([C@H]2CCC(=O)NC2=O)C3=O)cc1)N1CCN(C(=O)C2CC2)CC1` [Compound 11, (S)-3-(4-((4-((R)-1-(4-(cyclopropanecarbonyl)piperazin-1-yl)ethyl)benzyl)oxy)-1-oxoisoindolin-2-yl)piperidine-2,6-dione] came in with a concentration for half-maximal inhibition (IC50) in data set [1] (Homo sapiens, NCI-H929, 144 h) of 2.2 nM.

As for `C[C@H](c1ccc(COc2cccc3c2CN([C@H]2CCC(=O)NC2=O)C3=O)cc1)N1CCN(C2CC2)CC1` [Compound 12, (S)-3-(4-((4-((R)-1-(4-cyclopropylpiperazin-1-yl)ethyl)benzyl)oxy)-1-oxoisoindolin-2-yl)piperidine-2,6-dione], half-maximal inhibition in data set [1] (Homo sapiens, NCI-H929, 144 h) (IC50) was put at 0.3 nM.

Turning to `C[C@H](c1ccc(COc2cccc3c2CN([C@H]2CCC(=O)NC2=O)C3=O)cc1)N1CCN(S(C)(=O)=O)CC1` [Compound 13, (S)-3-(4-((4-((R)-1-(4-(methylsulfonyl)piperazin-1-yl)ethyl)benzyl)oxy)-1-oxoisoindolin-2-yl)piperidine-2,6-dione], in data set [1] (Homo sapiens, NCI-H929, 144 h), the half-inhibitory concentration (IC50) came to 1.2 nM.

In data set [1] (Homo sapiens, NCI-H929, 144 h), `C[C@H](c1ccc(COc2cccc3c2CN([C@H]2CCC(=O)NC2=O)C3=O)cc1)N1CCN(C)CC1` [Compound 14, (S)-3-(4-((4-((R)-1-(4-methylpiperazin-1-yl)ethyl)benzyl)oxy)-1-oxoisoindolin-2-yl)piperidine-2,6-dione] registered an IC50 of 1.4 nM.

For `C[C@H](c1ccc(COc2cccc3c2CN([C@H]2CCC(=O)NC2=O)C3=O)cc1)N1CCN(c2ccncn2)CC1` [Compound 15, (S)-3-(1-oxo-4-((4-((R)-1-(4-(pyrimidin-4-yl)piperazin-1-yl)ethyl)benzyl)oxy)isoindolin-2-yl)piperidine-2,6-dione], the IC50 in the data set with TNFα is 1.7 nM; in data set [1] (Homo sapiens, NCI-H929, 144 h), 0.4 nM. The EC50 with IL-2 (Homo sapiens) is 19 nM.

Turning to `C[C@H](c1ccc(COc2cccc3c2CN([C@H]2CCC(=O)NC2=O)C3=O)cc1)N1CCN(c2ccc(F)cc2F)CC1` [Compound 17, (S)-3-(4-((4-((R)-1-(4-(2,4-difluorophenyl)piperazin-1-yl)ethyl)benzyl)oxy)-1-oxoisoindolin-2-yl)piperidine-2,6-dione], the half-maximal inhibitory concentration (IC50) is 3.7 nM in the data set with TNFα and 0.3 nM in data set [1] (Homo sapiens, NCI-H929, 144 h).

Molecule `C[C@H](c1ccc(COc2cccc3c2CN([C@H]2CCC(=O)NC2=O)C3=O)cc1)N1CCN(c2ccncc2F)CC1` [Compound 20, (S)-3-(4-((4-((R)-1-(4-(3-fluoropyridin-4-yl)piperazin-1-yl)ethyl)benzyl)oxy)-1-oxoisoindolin-2-yl)piperidine-2,6-dione] returned an EC50 in the data set with IL-2 (Homo sapiens) of 1.9 nM. In data set [1] (Homo sapiens, NCI-H929, 144 h), this molecule returned a 50% inhibitory concentration (IC50) of 0.1 nM.
